Laboratory results from patent publication US10124012B2, “Method for treatment of hyperglycemia and hyperlipidemia” (priority 2016, dated 2018).

What was measured:
Type in all cases: in vivo, C57BL/6J mice
FAS = test: Western blotting of FAS in liver and adipose tissue; conditions: HFD-fed mice, AnK 10, 20, 40, Feno 250, Metf 300 mg/kg/day, vs HF group; for expression levels of FAS (protein): adipose tissue; for FAS expression levels (protein): liver
From the text: (§1) The 4-week old male C57BL/6J mice (total amount n=63) were obtained from the National Laboratory Animal Center (Taipei, Taiwan). After acclimatization for one week, all of the mice were randomly assigned into a control (CON) group and a high-fat diet (HFD) group. […] After HFD feeding for 8 weeks, the HFD group was randomly subdivided into six groups (n=9 per group) receiving different treatments and fed on HFD. […] The HF+AnK1, HF+AnK2, and HF+AnK3 groups are collectively termed AnK-treated HFD groups in the following examples. The CON mice were administered vehicle. All treatments were administered via oral gavage once daily. After administration for 4 weeks, all mice were fasted 12 hours, and blood was collected from the retro-orbital sinus under ether anesthesia. At the end of the experiment, the mice were sacrificed via carbon dioxide inhalation. Liver, adipose tissue, and skeletal muscle were collected and immediately stored at −80° C. for target gene analysis.
(§2) About 0.1 g of liver tissue, skeletal muscle, or adipose tissue was used for the homogenate samples. Samples were powdered under liquid nitrogen and homogenized for 20 seconds in 500 μL buffer containing 20 mM Tris-HCl (pH 7.4 at 4° C.), 2% SDS, 5 mM EDTA, 5 mM EGTA, 1 mM dithiothreitol (DTT), 100 mM NaF, 2 mM sodium vanadate, 0.5 mM phenylmethylsulfonyl fluoride, 10 μg/mL leupeptin, and 10 μL/mL pepstatin. The total membrane fraction was used for measurement. The protein concentration in supernatant was determined with a BCA protein assay kit (Thermo Scientific, Rockford, Ill., USA). […] The membrane was blocked with 5% slim milk in Tris-buffered saline (TBS)(Amersham BioSciences, Uppsala, Sweden) containing 0.05% Tween-20 (Bio Rad, CA, USA) and incubated overnight at 4° C. with antibodies at 1:200 dilution. Subsequently, the membrane was washed three times with TBS containing 0.05% Tween-20 and incubated with secondary antibody anti-rabbit (1:1000)(Jackson ImmunoResearch Laboratories, Inc., PA, USA) for 1 hour. Immunoreactive bands were detected with ECL reagent kit (GE Healthcare BioSciences, Buckinghamshire, UK). The intensity of Western blot signals was analyzed using AlphaEase FC software (Alpha Innotech Corporation, Randburg, South Africa). The structural protein GAPDH in the samples was used as the loading control.

[1] = test system: high-fat diet-fed C57BL/6J mouse; test: Hepatic lipids in HFD-fed mice
Experimental: as §1, with “Animal studies” for “The 4-week old male C57BL/6J mice (total amount n=63)”, “performed and approved under” for “obtained from”, “guidelines of the Institutional” for “National Laboratory”, “Care and Use Committee in Taiwan (12 Mar. 2015). […]” for “Center (Taipei, Taiwan).”, “group. For the following 12 weeks, the CON group (n=9) received a control diet or a low-fat diet (Diet 12450B, Research Diets, Inc., New Brunswick, N.J., USA), while the HFD group (n=54) received a high-fat diet (Diet 12451, Research Diets, New Brunswick, N.J., USA).” for “group.”

DGAT2 = test: Liver mRNA by semi-quantitative RT-PCR: DGAT2; conditions: HFD-fed mice, oral gavage once daily 4 weeks, AnK 10, 20, 40, Feno 250, Metf 300 mg/kg/day, vs HF group
From the text: as §1, with “At the end of the experiment, the mice were sacrificed via carbon dioxide inhalation. Liver, adipose tissue, and skeletal muscle were collected and immediately stored at −80° C. for target gene analysis.” left out
(§3) Total RNA from liver tissue of mice was isolated with a Trizol Reagent (Molecular Research Center, Inc., Cincinnati, Ohio, USA) according to the manufacturer's instructions. The integrity of the extracted total RNA was examined by 2% agarose gel electrophoresis, and the RNA concentration was determined by the ultraviolet (UV) light absorbency at 260 nm and 280 nm (Spectrophotometer U-2800A, Hitachi). […]
(§4) Levels of mRNA of target genes were quantified by semi-quantitative reverse transcription polymerase chain reaction (RT-PCR). […] PCR products were analyzed by 2% agarose gel and stained with ethidium bromide.

SREBP2 = test: Liver mRNA by semi-quantitative RT-PCR: SREBP2; conditions: HFD-fed mice, oral gavage once daily 4 weeks, AnK 10, 20, 40, Feno 250, Metf 300 mg/kg/day, vs HF group
From the text: as §1, with “At the end of the experiment, the mice were sacrificed via carbon dioxide inhalation. Liver, adipose tissue, and skeletal muscle were collected and immediately stored at −80° C. for target gene analysis.” left out
as §3, §4

SREBP1c = test: Liver mRNA by semi-quantitative RT-PCR: SREBP1c; conditions: HFD-fed mice, oral gavage once daily 4 weeks, AnK 10, 20, 40, Feno 250, Metf 300 mg/kg/day, vs HF group
From the text: as §1, with “At the end of the experiment, the mice were sacrificed via carbon dioxide inhalation. Liver, adipose tissue, and skeletal muscle were collected and immediately stored at −80° C. for target gene analysis.” left out
as §3, §4

PPARα = test: Western blotting of hepatic PPARα; conditions: liver; HFD-fed mice; AnK 10, 20, 40, Feno 250, Metf 300 mg/kg/day; vs HF group
From the text: as §1, with “Liver, adipose tissue, and skeletal muscle were collected and immediately stored at −80° C. for target gene analysis.” left out
About 0.1 g of liver tissue, skeletal muscle, or adipose tissue was used for the homogenate samples. […] The protein concentration in supernatant was determined with a BCA protein assay kit (Thermo Scientific, Rockford, Ill., USA). […] Immunoreactive bands were detected with ECL reagent kit (GE Healthcare BioSciences, Buckinghamshire, UK). The intensity of Western blot signals was analyzed using AlphaEase FC software (Alpha Innotech Corporation, Randburg, South Africa). […]

[2] = test system: phospho-Akt (Ser^473)/total-Akt; test: Western blotting of phospho-Akt/total-Akt in skeletal muscle and liver; conditions: HFD-induced reduction, AnK 10, 20, 40, Feno 250, Metf 300 mg/kg/day, vs HF group
From the text: as §1, §2

[3] = HF + Metf: metformin 300 mg/kg/day oral gavage 4 weeks
[4] = HF + AnK1: AnK 10 mg/kg/day oral gavage 4 weeks
[5] = HF + AnK2: AnK 20 mg/kg/day oral gavage 4 weeks
[6] = HF + AnK3: AnK 40 mg/kg/day oral gavage 4 weeks

SMILES	expression levels of FAS (protein) (FAS)	FAS expression levels (protein) (FAS)	Liver lipids total lipid [1, 3]	Liver lipids triacylglycerol [1, 3]	mRNA levels of DGAT2 (DGAT2)	mRNA levels of SREBP2 (SREBP2)	mRNA levels of SREBP1c (SREBP1c)	PPARα expression levels (protein) (PPARα)	expression levels of phosphor-Akt/total-Akt ([2]; liver)	expression levels of phosphor-Akt/total-Akt ([2]; skeletal muscle)	Liver lipids total lipid [1, 4]	Liver lipids triacylglycerol [1, 4]	Liver lipids total lipid [1, 5]	Liver lipids triacylglycerol [1, 5]	Liver lipids total lipid [1, 6]	Liver lipids triacylglycerol [1, 6]
CN(C)C(=N)N=C(N)N [Metf, metformin, reference compound]	significantly reduced	decreased	65.3 ± 4.9 mg/g	45.4 ± 4.2 µmol/g	significantly decreased	significantly decreased	significantly decreased	significantly increased	significantly reversed	significantly reversed	–	–	–	–	–	–
C=C(CC[C@@H](C)[C@H]1CC[C@H]2C3=C(C(=O)C[C@]12C)[C@@]1(C)CC[C@@H](O)[C@](C)(O)[C@@H]1C[C@@H]3O)C(C)C(=O)O (stereo partly drawn) [AnK, 3α,4β,7β-trihydroxy-4α-methylergosta-8,24(28)-dien-11-on-25S-26-oic acid]	significantly reduced	decreased	–	–	significantly decreased	significantly decreased	significantly decreased	significantly increased	significantly reversed	significantly reversed	73.1 ± 4.7 mg/g	56.3 ± 4.2 µmol/g	66.0 ± 4.8 mg/g	45.7 ± 3.9 µmol/g	64.5 ± 5.2 mg/g	45.2 ± 4.6 µmol/g
